Data taken from PMC6009956, “Design, synthesis and biological activity of N^4-phenylsubstituted-7H-pyrrolo[2,3-d]pyrimidin-4-amines as dual inhibitors of aurora kinase A and epidermal growth factor receptor kinase” (Journal of Enzyme Inhibition and Medicinal Chemistry, 2017).
Like-named read-outs stand apart in the source and are kept apart here.

Experiments:
[1] = molecular target: T1, aurora A kinase (AURKA) (Homo sapiens, UniProt O14965); experiment: ADP-Glo kinase assay, Aurora A; type: biochemical
T1 construct: purchased BPS Bioscience (assay run externally by the vendor)
T1 sequence (O14965 1-403): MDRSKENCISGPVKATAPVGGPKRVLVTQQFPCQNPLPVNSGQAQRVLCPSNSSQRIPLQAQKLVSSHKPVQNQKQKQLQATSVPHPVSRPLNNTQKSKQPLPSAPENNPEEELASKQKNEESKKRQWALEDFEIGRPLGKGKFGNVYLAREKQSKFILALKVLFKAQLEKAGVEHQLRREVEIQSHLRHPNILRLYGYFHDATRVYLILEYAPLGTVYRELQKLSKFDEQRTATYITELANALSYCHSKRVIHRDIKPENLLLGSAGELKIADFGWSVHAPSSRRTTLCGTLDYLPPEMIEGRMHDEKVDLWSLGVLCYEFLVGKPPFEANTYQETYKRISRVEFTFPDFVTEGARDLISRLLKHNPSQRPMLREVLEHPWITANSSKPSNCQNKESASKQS

[2] = molecular target: EGFR (Homo sapiens, UniProt P00533); experiment: ADP-Glo kinase assay, EGFR; type: biochemical; design: purchased BPS Bioscience (assay run externally by the vendor)
EGFR, sequence (P00533 25-1210): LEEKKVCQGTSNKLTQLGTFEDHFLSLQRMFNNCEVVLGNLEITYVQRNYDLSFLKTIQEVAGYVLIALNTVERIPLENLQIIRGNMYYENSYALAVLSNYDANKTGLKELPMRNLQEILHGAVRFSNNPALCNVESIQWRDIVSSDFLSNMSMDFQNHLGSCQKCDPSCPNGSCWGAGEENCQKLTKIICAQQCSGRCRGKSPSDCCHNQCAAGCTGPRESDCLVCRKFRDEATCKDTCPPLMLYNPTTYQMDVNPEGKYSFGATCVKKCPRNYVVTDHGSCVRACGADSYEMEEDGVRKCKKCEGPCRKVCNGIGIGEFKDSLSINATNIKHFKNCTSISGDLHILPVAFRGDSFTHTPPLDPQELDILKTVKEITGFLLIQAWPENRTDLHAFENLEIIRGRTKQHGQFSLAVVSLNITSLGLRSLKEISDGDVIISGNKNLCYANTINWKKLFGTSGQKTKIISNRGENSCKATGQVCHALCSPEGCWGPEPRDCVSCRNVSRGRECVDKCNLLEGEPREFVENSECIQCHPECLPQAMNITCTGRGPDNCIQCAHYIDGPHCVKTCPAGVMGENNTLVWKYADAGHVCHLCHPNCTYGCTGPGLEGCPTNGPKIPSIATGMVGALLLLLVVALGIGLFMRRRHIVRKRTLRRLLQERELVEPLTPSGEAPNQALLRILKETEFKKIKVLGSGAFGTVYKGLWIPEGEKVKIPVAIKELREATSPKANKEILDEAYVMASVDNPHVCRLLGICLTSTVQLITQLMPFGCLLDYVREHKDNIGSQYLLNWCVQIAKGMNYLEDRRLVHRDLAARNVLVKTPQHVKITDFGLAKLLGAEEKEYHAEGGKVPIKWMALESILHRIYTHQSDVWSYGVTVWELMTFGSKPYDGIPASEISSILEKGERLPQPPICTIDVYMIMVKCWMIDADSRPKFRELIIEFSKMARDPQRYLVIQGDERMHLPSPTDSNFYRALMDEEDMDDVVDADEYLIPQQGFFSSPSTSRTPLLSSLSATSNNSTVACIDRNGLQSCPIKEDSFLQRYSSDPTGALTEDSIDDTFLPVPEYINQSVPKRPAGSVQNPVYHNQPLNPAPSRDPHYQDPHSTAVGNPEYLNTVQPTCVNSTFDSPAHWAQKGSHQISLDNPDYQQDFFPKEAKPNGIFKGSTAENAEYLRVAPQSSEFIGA

## Clc1ccccc1Nc1ncnc2[nH]ccc12 [Compound 14, N^4-(2-chlorophenyl)-7H-pyrrolo[2,3-d]pyrimidin-4-amine]
[1]; 10 µM ATP, triplicate, read-out: AURKA IC50 ± SD
  IC50: 5.66 ± 0.43 µM
[1]; 10 µM ATP/0.2 mg/ml Kemptide, read-out: Aurora A IC50 (dose-response curve, supplement)
  IC50: 5.7 µM
[1]; Log[nM] 0
  Aurora A % Activity Set1: 97%
  Aurora A % Activity Set2: 92%
  Aurora A % Activity Set3: 94%
[1]; Log[nM] 1.0
  Aurora A % Activity Set1: 102%
  Aurora A % Activity Set2: 97%
  Aurora A % Activity Set3: 98%
[1]; Log[nM] 1.5
  Aurora A % Activity Set1: 111%
  Aurora A % Activity Set2: 96%
  Aurora A % Activity Set3: 98%
[1]; Log[nM] 2.0
  Aurora A % Activity Set1: 103%
  Aurora A % Activity Set2: 98%
  Aurora A % Activity Set3: 102%
[1]; Log[nM] 2.5
  Aurora A % Activity Set1: 101%
  Aurora A % Activity Set2: 106%
  Aurora A % Activity Set3: 101%
[1]; Log[nM] 3.0
  Aurora A % Activity Set1: 87%
  Aurora A % Activity Set2: 86%
  Aurora A % Activity Set3: 93%
[1]; Log[nM] 3.5
  Aurora A % Activity Set1: 73%
  Aurora A % Activity Set2: 68%
  Aurora A % Activity Set3: 73%
[1]; Log[nM] 4.0
  Aurora A % Activity Set1: 28%
  Aurora A % Activity Set2: 25%
  Aurora A % Activity Set3: 27%
[1]; Log[nM] 4.5
  Aurora A % Activity Set1: 14%
  Aurora A % Activity Set2: 13%
  Aurora A % Activity Set3: 14%
[1]; Log[nM] 5.0
  Aurora A % Activity Set1: 13%
  Aurora A % Activity Set2: 11%
  Aurora A % Activity Set3: 14%
[2]; 10 µM ATP, triplicate, read-out: EGFR IC50 ± SD
  IC50: 0.471 ± 0.114 µM
[2]; 10 µM ATP/0.2 mg/ml Poly-Glu-Tyr, read-out: EGFR IC50 (dose-response curve, supplement)
  IC50: 0.471 µM
[2]; Log[nM] 0
  EGFR % Activity Set1: 100%
  EGFR % Activity Set2: 95%
  EGFR % Activity Set3: 94%
[2]; Log[nM] 1.0
  EGFR % Activity Set1: 105%
  EGFR % Activity Set2: 90%
  EGFR % Activity Set3: 96%
[2]; Log[nM] 1.5
  EGFR % Activity Set1: 108%
  EGFR % Activity Set2: 83%
  EGFR % Activity Set3: 93%
[2]; Log[nM] 2.0
  EGFR % Activity Set1: 89%
  EGFR % Activity Set2: 75%
  EGFR % Activity Set3: 84%
[2]; Log[nM] 2.5
  EGFR % Activity Set1: 62%
  EGFR % Activity Set2: 53%
  EGFR % Activity Set3: 57%
[2]; Log[nM] 3.0
  EGFR % Activity Set1: 36%
  EGFR % Activity Set2: 27%
  EGFR % Activity Set3: 33%
[2]; Log[nM] 3.5
  EGFR % Activity Set1: 16%
  EGFR % Activity Set2: 14%
  EGFR % Activity Set3: 16%
[2]; Log[nM] 4.0
  EGFR % Activity Set1: 8%
  EGFR % Activity Set2: 6%
  EGFR % Activity Set3: 7%
[2]; Log[nM] 4.5
  EGFR % Activity Set1: 4%
  EGFR % Activity Set2: 3%
  EGFR % Activity Set3: 3%
[2]; Log[nM] 5.0
  EGFR % Activity Set1: 5%
  EGFR % Activity Set2: 4%
  EGFR % Activity Set3: 4%
